Reference: patent US20050049295A1, “Process for the preparation of 5-(2-(4-(1,2-benzisothiazol-3-yl)-1piperazinyl) ethyl)-6-chloro-1, 3-dihydro-2h-indol-2-one hydrochloride (ziprasidone hydrochloride) and its intermediate” (DR. REDDY'S LABORATORIES LIMITED, priority 2003, published 2005)

Legend:
Type in all cases: physicochemical
[1] = Stability study with normal packing (without inert atmosphere), 40° C. and 75% relative humidity; conditions: 40° C./75% RH
Experimental: Stability study with normal packing (without inert atmosphere): Initial and up to two-month stability profile with normal packing was carried out at 40° C. and 75% relative humidity conditions as follow: […]

[2] = X-ray powder diffractogram of initial and two-month stability samples; conditions: Cu K alpha-1 radiation
Experimental: X-Ray diffractograms of active substance Ziprasidone HCl (Initial and after two month sample) were recorded on Bruker Axe, DS Advance Powder X-ray Diffractometer with Cu K alpha-1 Radiation source. The characteristic X-ray diffractogram of Ziprasidone hydrochloride was found similar.

[3] = Stability study with improved packing (inert atmosphere), 25° C. and 60% relative humidity; conditions: 25° C./60% RH
Description: (§1) Ziprasidone hydrochloride prepared by the present invention can be packed with a specific process to prevent from hydrating or to improve stability during the storage or transporting of ziprasidone hydrochloride products. This can be achieved by storing the active substance in inert atmosphere, which is technologically and economically simple. The active substance Ziprasidone HCl is stored in polythene bag or containers. The inert atmosphere may be made by nitrogen or argon or mixture thereof. Silica gel or desiccant in air permeable bag may be used optionally along with inert gas in the polythene bag or container.
(§2) Stability study with improved packing (inert atmosphere):
The stability studies were also carried out at 25° C. and 60% relative humidity condition.

[4] = Crystal size distribution / mean particle size D[4,3] (Malvern)
Experimental: Ziprasidone hydrochloride (3 Kg) in formic acid (4.5 L) was heated to 60-65° C. for clear dissolution. The solution was filtered to remove any solid particles and the filtrate was cooled to 50-55° C. Ziprasidone hydrochloride (7.5 gm) as seed compound was added to the cooled filtrate. After stirred for 2 hr at 50-55° C., the resulting solution was cooled slowly to 25-35° C. over 1 to 1.5 hour. Ethyl acetate (13.5 L) was added slowly at 25-35° C. over 2 hrs. The resulting mass was stirred for 30-45 min at 25-35° C. The compound was filtered under nitrogen atmosphere. The filtered wet compound was added to acetic acid (10 L) at 25-35° C. under nitrogen atmosphere, and the resulting mixture was stirred for 30-45 min at 25-35° C. The compound was filtered under nitrogen atmosphere, washed with ethyl acetate (10 L), and then dried the compound at 60° C. under reduced pressure for 3-4 hrs and then at 110-120° C. to get the Ziprasidone hydrochloride (2.2 Kg). The product purity by HPLC was analyzed as 99.8%. The crystal size distribution as measured by Malvern was: D10<18.75 micron, D50=114.82 micron, […] and the mean particle size or D[4,3]=123.8 micron.

[5] = Stability study with improved packing (inert atmosphere), 40° C. and 75% relative humidity; conditions: 40° C./75% RH
Description: as §1, §2
Initial and up to two-month stability profile for the hygroscopic active substance Ziprasidone HCl is shown below:
The stability studies were carried out at 40° C. and 75% relative humidity condition.

[6] = Example 15, crystal size distribution by Malvern

## Cl.O=C1Cc2cc(CCN3CCN(c4nsc5ccccc45)CC3)c(Cl)cc2N1 [Ziprasidone hydrochloride, 5-(2-(4-(1,2-benzisothiazol-3-yl)-1-piperazinyl)ethyl)-6-chloro-1,3-dihydro-2H-indol-2-one hydrochloride]
[1]; Initial
  Moisture content: 0.25% w/w
[1]; One month
  Moisture content: 3.45% w/w
[1]; Two month
  Moisture content: 4.83% w/w
[2]
  X-ray diffractogram, initial versus after two month sample: similar
[3]; Initial
  Assay: 99.4% w/w
  Moisture content: 0.54% w/w
  Total Impurity: 0.19% w/w
[3]; One month
  Assay: 99.2% w/w
  Moisture content: 0.38% w/w
  Total Impurity: 0.18% w/w
[3]; Two month
  Assay: 99.3% w/w
  Moisture content: 0.48% w/w
  Total Impurity: 0.21% w/w
[4]; Example 12: reactive crystallization from base in formic acid with HCl in ethyl acetate
  mean particle size or D[4,3]: 94.1 micron
[4]; Example 13: formic acid solvent, ethyl acetate anti-solvent, 30° C.
  mean particle size or D[4,3]: 101.1 micron
[4]; Example 14: seeded cooling crystallization from formic acid
  mean particle size or D[4,3]: 264.5 micron
[4]; [6]
  D10: < 18.75 micron
  D50: 114.82 micron
  D60: < 236.5 micron
[4]; Example 15: seeded, formic acid / ethyl acetate anti-solvent, acetic acid slurry
  mean particle size or D[4,3]: 123.8 micron
[4]; Example 16: reverse addition of formic acid solution into hot seeded ethyl acetate, 1.5 Kg
  mean particle size or D[4,3]: 156.2 micron
[4]; Example 17: reverse addition of formic acid solution into hot seeded ethyl acetate, 20 Kg
  D[4,3]: 132.2 micron
[5]; Initial
  Assay: 99.4% w/w
  Moisture content: 0.54% w/w
  Total Impurity: 0.19% w/w
[5]; One month
  Assay: 99.4% w/w
  Moisture content: 0.41% w/w
  Total Impurity: 0.19% w/w
[5]; Two month
  Assay: 99.7% w/w
  Moisture content: 0.54% w/w
  Total Impurity: 0.20% w/w
